From ChEMBL document CHEMBL4043151, “Synthesis and biological evaluation of Aspergillomarasmine A derivatives as novel NDM-1 inhibitor to overcome antibiotics resistance” (Bioorg Med Chem, 2017) come the findings set out here.

One data set has as its system Klebsiella pneumoniae. The data set is described as follows: Growth inhibition of Klebsiella pneumoniae ATCC BAA-2146.
The subject of data set [1] is Klebsiella pneumoniae ATCC BAA-2146. The data set is described as follows: Inhibition of NDM1 in Klebsiella pneumoniae ATCC BAA-2146 assessed as potentiation of meropenem-induced microbial growth inhibition by measuring meropenem MIC by cell-based synergy screening assay (Rvb (meropenem MIC alone) = 65 microg/ml).
Data set [2] shares this test system. The data set is described as follows: Inhibition of NDM1 in Klebsiella pneumoniae ATCC BAA-2146 assessed as potentiation of meropenem-induced microbial growth inhibition by measuring compound MIC by cell-based synergy screening assay.
For data set [3] the test system is unchanged. The data set is described as follows: Inhibition of NDM1 in Klebsiella pneumoniae ATCC BAA-2146 assessed as rescue concentration needed to fully regain activity of meropenem at clinical breakpoint (2.5 uM) by cell-based synergy screening assay.
The nature of data set [4]: Inhibition of NDM1 (unknown origin) pre-incubated for 10 mins before nitrocefin substrate addition.
The subject of data set [5] is Klebsiella pneumoniae ATCC BAA-2146. The data set is described as follows: Inhibition of NDM1 in Klebsiella pneumoniae ATCC BAA-2146 assessed as potentiation of meropenem-induced microbial growth inhibition by cell-based synergy screening assay.
The test system is the same in data set [6]. The data set is described as follows: Inhibition of NDM1 in Klebsiella pneumoniae ATCC BAA-2146 assessed as potentiation of meropenem-induced microbial growth inhibition by measuring meropenem MIC by cell-based synergy screening assay (Rvb (meropenem MIC alone) = 16.25 microg/ml).
Data set [7] has the same test system. The data set is described as follows: Inhibition of NDM1 in Klebsiella pneumoniae ATCC BAA-2146 assessed as potentiation of meropenem-induced microbial growth inhibition by measuring meropenem MIC by cell-based synergy screening assay (Rvb (meropenem MIC alone) = 32.5 microg/ml).
For data set [8] the test system is unchanged. The data set is described as follows: Inhibition of NDM1 in Klebsiella pneumoniae ATCC BAA-2146 assessed as potentiation of meropenem-induced microbial growth inhibition by measuring meropenem MIC by cell-based synergy screening assay (Rvb (meropenem MIC alone) = 8 microg/ml).
The test system is the same in data set [9]. The data set is described as follows: Inhibition of NDM1 in Klebsiella pneumoniae ATCC BAA-2146 assessed as potentiation of meropenem-induced microbial growth inhibition by measuring meropenem MIC by cell-based synergy screening assay (Rvb (meropenem MIC alone) = 2 microg/ml).

Molecules are shown by their SMILES. Values after ≈ are worked out from the molar mass of the structure shown.

`N[C@@H](CN[C@@H](CN1CCC[C@H]1C(=O)O)C(=O)O)C(=O)O`: the MIC with Klebsiella pneumoniae is above 280 µg/mL; in data set [1] it was 65 µg/mL; in data set [2], above 280 µg/mL. For the same compound, in [3], the Activity is above 100 µM. The IC50 in data set [4] (read-out: IC50) was found to be 12.8 µM. The fractional inhibitory concentration index (FICI) in data set [5] amounted to 2.

Take `N[C@H](CN[C@@H](CN[C@@H](CC(=O)O)C(=O)O)C(=O)O)C(=O)O`: the MIC in data set [6] is 65 µg/mL; in the data set on Klebsiella pneumoniae, 62.5 µg/mL (≈ 203 µM); in data set [2] it was above 250 µg/mL. The Activity in data set [3] was found to be 50 µM. In [4] (read-out: IC50), the 50% inhibitory concentration (IC50) came to 9.3 µM. Also, the fractional inhibitory concentration index (FICI) in data set [5] was below 0.5.

With `COC(=O)C[C@H](NC[C@H](NC[C@H](N)C(=O)O)C(=O)O)C(=O)OC`, the MIC in the data set on Klebsiella pneumoniae was above 298 µg/mL; in [1], 65 µg/mL; in [2], above 298 µg/mL. Besides, the Activity in data set [3] was above 100 µM. Also, the IC50 entry in [4] is listed as “Not Active”. The fractional inhibitory concentration index (FICI) in data set [5] turned out to be 2.

Regarding `N[C@@H](CN[C@H](CN[C@@H](CC(=O)O)C(=O)O)C(=O)O)C(=O)O`, the MIC was 65 µg/mL in data set [7], 125 µg/mL (≈ 407 µM) against Klebsiella pneumoniae and above 250 µg/mL in data set [2]. For the same compound, the Activity in data set [3] worked out at 100 µM. Also, in data set [4] (read-out: IC50), the IC50 amounted to 10.4 µM. The fractional inhibitory concentration index (FICI) in data set [5] was below 1.

Turning to `C[C@@H](CN[C@@H](CN[C@@H](CC(=O)O)C(=O)O)C(=O)O)C(=O)O`, the MIC is 125 µg/mL (≈ 408 µM) against Klebsiella pneumoniae, above 250 µg/mL in data set [2] and 65 µg/mL in data set [8]. The Activity in data set [3] was found to be 50 µM. Also, in data set [4] (read-out: IC50), the IC50 stood at 10.4 µM. For the same compound, the fractional inhibitory concentration index (FICI) in data set [5] is below 0.62.

As for `N[C@@H](CN[C@@H](CN1CCC[C@@H]1C(=O)O)C(=O)O)C(=O)O`, the MIC is 65 µg/mL in [7], 406 µg/mL (≈ 1400 µM) in the data set on Klebsiella pneumoniae and above 406 µg/mL in [2]. The Activity in data set [3] is above 100 µM. Moreover, in [4] (read-out: IC50), the IC50 was 9 µM. Besides, the fractional inhibitory concentration index (FICI) in data set [5] is below 1.5.

For `C[C@H](CC(=O)O)NC[C@H](NC[C@H](N)C(=O)O)C(=O)O`, the MIC is 65 µg/mL in [7], 125 µg/mL (≈ 451 µM) against Klebsiella pneumoniae and above 250 µg/mL in [2]. Besides, the Activity in data set [3] was above 100 µM. The IC50 in data set [4] (read-out: IC50) came to 94 µM. The fractional inhibitory concentration index (FICI) in data set [5] is below 1.

Regarding `N[C@H](CN[C@H](CN[C@@H](CC(=O)O)C(=O)O)C(=O)O)C(=O)O`, the MIC against Klebsiella pneumoniae is 125 µg/mL (≈ 407 µM); in data set [2] it was above 250 µg/mL; in data set [8] it was 65 µg/mL. In addition, the Activity in data set [3] came out at 50 µM. Also, the 50% inhibitory concentration (IC50) in data set [4] (read-out: IC50) turned out to be 8.1 µM. In addition, the fractional inhibitory concentration index (FICI) in data set [5] is below 0.62.

Turning to `COC(=O)[C@H](CN[C@@H](CC(=O)O)C(=O)O)NC[C@H](N)C(=O)OC`, the MIC against Klebsiella pneumoniae was above 298 µg/mL; in data set [1] it was 65 µg/mL; in [2], above 298 µg/mL. In [3], the Activity was above 100 µM. Also, the IC50 in data set [4] (read-out: IC50) worked out at 17.2 µM. In data set [5], the fractional inhibitory concentration index (FICI) was found to be 2.

`C[C@H](NC[C@H](NC[C@H](N)C(=O)O)C(=O)O)C(=O)O`: the MIC was 65 µg/mL in data set [7], 250 µg/mL (≈ 950 µM) against Klebsiella pneumoniae and above 250 µg/mL in data set [2]. Also, the Activity in data set [3] is above 100 µM. In [4] (read-out: IC50), the IC50 amounted to 22.1 µM. For the same compound, the fractional inhibitory concentration index (FICI) in data set [5] was below 1.5.

Consider `N[C@@H](CN[C@@H](CN[C@@H](CC(=O)O)C(=O)O)C(=O)O)C(=O)O`, for which the MIC in [9] is 65 µg/mL; with Klebsiella pneumoniae, 62.5 µg/mL (≈ 203 µM); in data set [2], above 250 µg/mL. Further, the Activity in data set [3] was found to be 25 µM. Besides, the IC50 in data set [4] (read-out: IC50) stood at 7 µM. Further, the fractional inhibitory concentration index (FICI) in data set [5] is below 0.28.

What is called IC50 is the midpoint of a concentration-inhibition curve.
